One test has as its system 4T1. Nature of the test: Antiproliferative activity against 4T1 cells (unknown origin). Particulars: Mus musculus. In kind it is functional, cell-based.
The next test concerns MDA-MB-231. Nature of the test: Antiproliferative activity against MDA-MB-231 cells (unknown origin). The test is classed as functional, cell-based. Particulars: Homo sapiens.
Test [1] addresses T1, Epidermal growth factor receptor (Homo sapiens, UniProt P00533). Nature of the test: Inhibition of human EGFR.
Test [2] concerns the target Proto-oncogene tyrosine-protein kinase Src (Homo sapiens, UniProt P12931). Briefly: Inhibition of Src (unknown origin).
A further test deals with Aurora kinase A (Homo sapiens, UniProt O14965). Nature of the test: Inhibition of AURA (unknown origin).
Aurora kinase A, sequence (O14965 whole entry): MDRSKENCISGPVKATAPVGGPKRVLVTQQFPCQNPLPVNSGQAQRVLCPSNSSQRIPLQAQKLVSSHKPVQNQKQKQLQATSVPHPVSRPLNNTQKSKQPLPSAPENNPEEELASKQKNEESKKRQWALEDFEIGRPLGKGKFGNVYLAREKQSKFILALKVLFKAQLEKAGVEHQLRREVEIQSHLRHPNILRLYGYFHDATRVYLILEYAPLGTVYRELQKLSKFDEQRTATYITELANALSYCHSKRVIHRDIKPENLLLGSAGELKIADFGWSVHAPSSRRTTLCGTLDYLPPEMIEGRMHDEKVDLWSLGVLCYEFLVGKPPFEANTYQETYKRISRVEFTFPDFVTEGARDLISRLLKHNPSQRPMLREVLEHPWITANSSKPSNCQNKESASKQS
Test [3] can be described thus: Antiproliferative activity against human C643 cells harboring Ras mutation assessed as cell growth inhibition at 5 uM by cell counting assay. In kind it is functional.
Another test deals with BCPAP. Nature of the test: Antiproliferative activity against human BCPAP cells harboring BRAF V600E mutation assessed as cell growth inhibition at 5 uM by cell counting assay. In kind it is functional.
The test system of the next test is FTC-133. Briefly: Antiproliferative activity against human FTC-133 cells harboring PTEN mutation assessed as cell growth inhibition at 5 uM by cell counting assay. The test is classed as functional.
The next test concerns TPC1. Nature of the test: Antiproliferative activity against human TPC1 cells harboring RET/PTC mutation assessed as cell growth inhibition at 5 uM by cell counting assay. In kind it is functional.
Test [4] has as its target Serine/threonine-protein kinase mTOR (Homo sapiens, UniProt P42345). Nature of the test: Inhibition of mTOR (unknown origin) by ELISA based kinase assay. For orientation: In an ELISA, binding on a coated surface is turned into a signal by an enzyme label.
Test [5] is described as follows: Antiproliferative activity against human HTh7 cells harboring Ras mutation assessed as cell growth inhibition at 5 uM by cell counting assay. The test is classed as functional.
The test system of another test is SW-1736. Briefly: Antiproliferative activity against human SW-1736 cells harboring BRAF V600E mutation assessed as cell growth inhibition at 5 uM by cell counting assay. The test is classed as functional.
Test [6] is described as follows: Antiproliferative activity against human HTh104 cells harboring BRAF V600E mutation assessed as cell growth inhibition at 5 uM by cell counting assay. The test is classed as functional.
For another test, the system named is HCT-116. Nature of the test: Antiproliferative activity against human HCT-116 cells at 10 uM by MTT assay. The test is classed as functional, cell-based.
The subject of a further test is A-375. Briefly: Antiproliferative activity against human A-375 cells at 10 uM by MTT assay. In kind it is functional, cell-based. (In general: Tetrazolium assays rely on reduction of a dye to a coloured formazan, in cell work by metabolically active cells.)
Another test concerns MCF7. Briefly: Antiproliferative activity against human MCF7 cells at 10 uM by MTT assay. The test is classed as functional, cell-based.
A further test relates to COLO 205. Briefly: Antiproliferative activity against human COLO 205 cells at 10 uM by MTT assay. The test is classed as functional, cell-based.
Another test has as its system A549. Briefly: Antiproliferative activity against human A549 cells at 10 uM by MTT assay. In kind it is functional, cell-based.
A further test concerns LoVo. Briefly: Antiproliferative activity against human LoVo cells at 10 uM by MTT assay. The test is classed as functional, cell-based.
In test [7] the target is Serine/threonine-protein kinase B-raf (Homo sapiens, UniProt P15056, V600E). Nature of the test: Inhibition of human BRAF V600E mutant.
For test [8], the target named is Proto-oncogene tyrosine-protein kinase receptor Ret (Homo sapiens, UniProt P07949). Nature of the test: Inhibition of RET (unknown origin) by invitro kinase assay.
Proto-oncogene tyrosine-protein kinase receptor Ret (Homo sapiens, UniProt P07949), sequence (P07949 whole entry): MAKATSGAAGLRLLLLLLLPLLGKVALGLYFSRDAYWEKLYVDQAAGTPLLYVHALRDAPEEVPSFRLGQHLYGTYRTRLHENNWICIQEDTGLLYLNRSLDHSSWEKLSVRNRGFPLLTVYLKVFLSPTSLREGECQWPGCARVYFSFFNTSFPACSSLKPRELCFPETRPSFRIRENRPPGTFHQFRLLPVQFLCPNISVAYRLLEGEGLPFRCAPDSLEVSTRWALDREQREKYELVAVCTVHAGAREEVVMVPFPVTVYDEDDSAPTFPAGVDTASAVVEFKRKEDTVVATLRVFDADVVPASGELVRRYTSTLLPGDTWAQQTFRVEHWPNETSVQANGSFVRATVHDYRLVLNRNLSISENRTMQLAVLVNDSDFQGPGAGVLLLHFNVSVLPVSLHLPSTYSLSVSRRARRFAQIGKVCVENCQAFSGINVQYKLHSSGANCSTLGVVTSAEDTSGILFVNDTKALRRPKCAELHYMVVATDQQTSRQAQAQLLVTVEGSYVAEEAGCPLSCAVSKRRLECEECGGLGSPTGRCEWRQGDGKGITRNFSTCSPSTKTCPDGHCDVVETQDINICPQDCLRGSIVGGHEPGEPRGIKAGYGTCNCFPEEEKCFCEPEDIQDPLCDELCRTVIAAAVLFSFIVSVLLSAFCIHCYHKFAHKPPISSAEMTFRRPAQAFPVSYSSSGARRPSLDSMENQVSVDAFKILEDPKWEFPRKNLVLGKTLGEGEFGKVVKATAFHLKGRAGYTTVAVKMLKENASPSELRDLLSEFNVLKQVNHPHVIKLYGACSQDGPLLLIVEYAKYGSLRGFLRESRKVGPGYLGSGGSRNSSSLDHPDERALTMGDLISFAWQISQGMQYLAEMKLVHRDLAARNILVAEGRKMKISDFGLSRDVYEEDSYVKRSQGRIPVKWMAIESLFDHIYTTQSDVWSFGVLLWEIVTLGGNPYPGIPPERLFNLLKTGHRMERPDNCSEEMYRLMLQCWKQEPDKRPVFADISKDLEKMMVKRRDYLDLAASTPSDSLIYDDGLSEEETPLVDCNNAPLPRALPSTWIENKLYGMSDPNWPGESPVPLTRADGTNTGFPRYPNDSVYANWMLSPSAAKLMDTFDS
Test [9] addresses Proto-oncogene tyrosine-protein kinase receptor Ret (Homo sapiens, UniProt P07949, V804M). Briefly: Inhibition of RET V804M mutant (unknown origin) by invitro kinase assay.
Test [10] deals with Vascular endothelial growth factor receptor 2 (Homo sapiens, UniProt P35968). Briefly: Inhibition of VEGFR2 (unknown origin) by invitro kinase assay.
Vascular endothelial growth factor receptor 2, sequence (P35968 whole entry): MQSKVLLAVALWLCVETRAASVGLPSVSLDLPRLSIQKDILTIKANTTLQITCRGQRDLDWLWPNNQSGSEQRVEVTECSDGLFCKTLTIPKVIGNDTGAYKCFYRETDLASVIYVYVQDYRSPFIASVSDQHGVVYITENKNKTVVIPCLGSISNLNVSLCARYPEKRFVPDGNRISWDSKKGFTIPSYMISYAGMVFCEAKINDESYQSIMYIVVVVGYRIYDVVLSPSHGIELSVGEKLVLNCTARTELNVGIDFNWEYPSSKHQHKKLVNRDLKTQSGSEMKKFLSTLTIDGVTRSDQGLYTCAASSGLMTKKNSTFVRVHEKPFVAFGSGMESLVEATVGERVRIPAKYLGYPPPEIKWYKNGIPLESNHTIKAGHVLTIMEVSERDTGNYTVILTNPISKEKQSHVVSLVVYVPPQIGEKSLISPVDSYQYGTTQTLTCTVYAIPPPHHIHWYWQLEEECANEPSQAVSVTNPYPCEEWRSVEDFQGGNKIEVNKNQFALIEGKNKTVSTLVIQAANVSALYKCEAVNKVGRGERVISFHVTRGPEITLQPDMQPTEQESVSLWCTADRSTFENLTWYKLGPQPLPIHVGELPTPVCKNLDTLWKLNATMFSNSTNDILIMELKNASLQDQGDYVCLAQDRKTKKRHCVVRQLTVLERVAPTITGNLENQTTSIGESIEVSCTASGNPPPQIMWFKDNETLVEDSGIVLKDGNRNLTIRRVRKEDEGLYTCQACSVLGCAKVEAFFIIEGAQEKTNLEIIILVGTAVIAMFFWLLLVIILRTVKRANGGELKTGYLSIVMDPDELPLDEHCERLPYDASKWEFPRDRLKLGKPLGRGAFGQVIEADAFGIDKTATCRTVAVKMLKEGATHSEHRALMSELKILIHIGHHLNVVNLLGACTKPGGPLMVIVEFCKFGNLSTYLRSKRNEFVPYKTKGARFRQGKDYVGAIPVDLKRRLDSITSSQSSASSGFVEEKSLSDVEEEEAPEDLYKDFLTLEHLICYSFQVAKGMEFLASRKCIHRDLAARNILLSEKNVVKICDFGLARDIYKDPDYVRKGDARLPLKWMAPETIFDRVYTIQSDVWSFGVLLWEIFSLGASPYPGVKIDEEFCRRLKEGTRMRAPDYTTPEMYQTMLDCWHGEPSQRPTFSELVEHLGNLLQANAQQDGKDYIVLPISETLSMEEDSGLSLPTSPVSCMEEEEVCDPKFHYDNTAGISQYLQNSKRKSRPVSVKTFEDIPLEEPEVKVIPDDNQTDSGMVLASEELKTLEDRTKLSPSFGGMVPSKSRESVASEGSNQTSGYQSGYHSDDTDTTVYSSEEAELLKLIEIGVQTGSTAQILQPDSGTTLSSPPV
The next test has as its system DU-145. Nature of the test: Antiproliferative activity against human DU-145 cells assessed as growth inhibition and measured after 96 hrs by micro plate reader analysis. In kind it is functional, cell-based. Particulars: DU-145, 96 h.
Another test has as its system MES-SA. Nature of the test: Antiproliferative activity against human MES-SA cells assessed as growth inhibition and measured after 96 hrs by micro plate reader analysis. The test is classed as functional, cell-based.
Test [11] has as its target T1, Epidermal growth factor receptor. Nature of the test: Inhibition of human EGFR phosphorylation by invitro enzyme assay.

This is an account of results in ChEMBL document CHEMBL5241052, “Dual-target kinase drug design: Current strategies and future directions in cancer therapy” (Eur J Med Chem, 2020).

T1 sequence (P00533 whole entry): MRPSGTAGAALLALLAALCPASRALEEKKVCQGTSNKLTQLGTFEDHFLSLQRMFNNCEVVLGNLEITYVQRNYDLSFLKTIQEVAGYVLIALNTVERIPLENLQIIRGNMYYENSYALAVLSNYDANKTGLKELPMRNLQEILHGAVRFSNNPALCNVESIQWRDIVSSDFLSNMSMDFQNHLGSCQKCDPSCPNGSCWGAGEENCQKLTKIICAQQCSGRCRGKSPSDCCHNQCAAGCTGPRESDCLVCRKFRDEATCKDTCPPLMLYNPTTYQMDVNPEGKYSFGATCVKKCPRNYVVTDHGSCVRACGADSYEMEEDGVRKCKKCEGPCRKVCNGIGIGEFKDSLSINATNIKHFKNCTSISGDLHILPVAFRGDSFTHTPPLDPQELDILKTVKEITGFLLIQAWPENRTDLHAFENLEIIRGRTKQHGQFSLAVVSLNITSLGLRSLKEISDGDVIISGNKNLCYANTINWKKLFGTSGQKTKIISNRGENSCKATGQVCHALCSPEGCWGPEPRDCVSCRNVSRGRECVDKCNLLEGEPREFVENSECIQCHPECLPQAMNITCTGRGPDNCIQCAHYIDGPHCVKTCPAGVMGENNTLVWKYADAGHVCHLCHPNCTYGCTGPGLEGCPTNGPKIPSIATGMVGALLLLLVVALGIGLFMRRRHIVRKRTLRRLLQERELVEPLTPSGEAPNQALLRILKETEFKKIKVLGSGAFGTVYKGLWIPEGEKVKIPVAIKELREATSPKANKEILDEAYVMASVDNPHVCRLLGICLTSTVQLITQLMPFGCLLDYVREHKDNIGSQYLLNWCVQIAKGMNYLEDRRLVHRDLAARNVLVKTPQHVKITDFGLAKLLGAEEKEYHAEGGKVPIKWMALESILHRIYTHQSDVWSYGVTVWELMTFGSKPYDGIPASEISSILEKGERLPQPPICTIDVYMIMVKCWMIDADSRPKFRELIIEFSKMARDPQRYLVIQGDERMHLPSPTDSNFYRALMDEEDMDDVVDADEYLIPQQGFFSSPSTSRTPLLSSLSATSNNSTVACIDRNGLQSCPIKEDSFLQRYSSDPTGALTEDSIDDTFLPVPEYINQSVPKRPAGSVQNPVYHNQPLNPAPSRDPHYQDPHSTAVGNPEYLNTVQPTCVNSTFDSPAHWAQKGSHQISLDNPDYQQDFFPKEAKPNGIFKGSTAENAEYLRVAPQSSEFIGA
Proto-oncogene tyrosine-protein kinase Src, sequence (P12931 2-536 limits assumed): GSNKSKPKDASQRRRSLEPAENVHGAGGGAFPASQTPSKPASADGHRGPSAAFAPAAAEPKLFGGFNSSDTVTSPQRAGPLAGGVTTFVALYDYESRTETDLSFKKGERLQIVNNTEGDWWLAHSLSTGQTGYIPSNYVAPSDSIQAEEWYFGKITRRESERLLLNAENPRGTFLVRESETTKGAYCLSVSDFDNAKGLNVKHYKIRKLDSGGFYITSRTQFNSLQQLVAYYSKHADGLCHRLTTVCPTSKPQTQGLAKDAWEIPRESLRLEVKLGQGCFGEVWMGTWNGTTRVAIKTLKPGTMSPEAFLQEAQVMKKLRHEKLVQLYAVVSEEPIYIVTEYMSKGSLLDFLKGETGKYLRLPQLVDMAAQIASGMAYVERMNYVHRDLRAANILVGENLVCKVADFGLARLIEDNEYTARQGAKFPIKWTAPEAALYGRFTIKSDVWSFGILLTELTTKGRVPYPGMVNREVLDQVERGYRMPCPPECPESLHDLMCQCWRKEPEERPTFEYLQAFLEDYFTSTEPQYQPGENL

In the case of `CN(CCOC(=O)c1ccc(C(=O)Nc2ncnc3c2c(-c2ccc(Cl)cc2)nn3C(C)(C)C)nc1)Cc1ccc(C(=O)Nc2ccc3ncnc(Nc4cccc(Cl)c4)c3c2)cc1`, the 50% inhibitory concentration (IC50) in the test on 4T1 stood at 5.6 µM; in the test on MDA-MB-231, 7.34 µM; in test [1] it was 610 nM; in [2], 1100 nM.
For `Cc1cc(S(=O)(=O)Nc2ccc(/C=C3\SC(=O)N(CC4(C)CCCCC4)C3=O)cc2)ccc1[N+](=O)[O-]`, the half-maximal inhibitory concentration (IC50) was 35 nM on Aurora kinase A and 8.23 µM in [4]. The GI50 in test [3] is 4.51 µM; in the test on BCPAP it was 3.79 µM; in the test with FTC-133 it was 5.9 µM; with TPC1 it was 7.26 µM; in [5], 1360 nM; in the test with SW-1736, 4.21 µM. In test [6], the GI50 worked out at 3.37 µM.
As to `CN(c1nc(-c2cnc(N)nc2)nc(N2CCOCC2)n1)C1CCN(C(=O)c2ccccc2)CC1`, the concentration for half-maximal inhibition (IC50) with HCT-116 amounted to 110 nM; with A-375 it was 100 nM; with MCF7 it was 500 nM; with COLO 205 it was 90 nM; with A549, 90 nM; with LoVo it was 80 nM. The molecule further yielded an IC50 in test [7] of 118 nM.
On to `O=C(Cc1ccc(-n2cnc3cc(-c4ccsc4)ccc32)cc1)Nc1cccc(C(F)(F)F)c1`, for which the IC50 in test [8], in test [9] and in [10] was below 1 nM in each case.
Take `COc1cccc(-c2cc(=O)c3ccccc3o2)c1NC(=O)OCCOC(=O)NCCN(C)CCN/N=N/c1ccc2c(Nc3cccc(Cl)c3)ncnc2c1`: the values for the IC50 (in the test on DU-145; in the test with MES-SA; in test [11]) were 11.3 µM, 24.5 µM and 102 nM, respectively.

For orientation: IC50 means the concentration at which inhibition is half-maximal. As usually defined, the GI50 is the concentration at which growth is held to half of that of the control.
